Assay results from ChEMBL document CHEMBL1201862, “PubChem BioAssay data set” (2004).
Calls of active or inactive are those of the source.

Key:
[1] = target: Peroxisome proliferator-activated receptor gamma/Nuclear receptor coactivator 1 (Homo sapiens, UniProt P37231); test: (§1) TR-FRET dose response biochemical High Throughput Screening assay for agonists of the steroid receptor coactivator 1 (SRC-1) recruitment by the peroxisome proliferator-activated receptor gamma (PPAR gamma): non-selective agonists. [Related pubchem assays (depositor defined):AID1300, AID1808, AID504735, AID631]; type: protein assay
[2] = target: Peroxisome proliferator-activated receptor gamma/Nuclear receptor coactivator 3 (Homo sapiens, UniProt P37231); test: as §1, with “3 (SRC-3)” for “1 (SRC-1)”, “assays: 1301 (Confirmation screen.), 1048 (Primary screen.)]” for “assays (depositor defined):AID1300, AID1808, AID504735, AID631]”; type: functional
Chain of Peroxisome proliferator-activated receptor gamma/Nuclear receptor coactivator 3 (P37231 whole entry): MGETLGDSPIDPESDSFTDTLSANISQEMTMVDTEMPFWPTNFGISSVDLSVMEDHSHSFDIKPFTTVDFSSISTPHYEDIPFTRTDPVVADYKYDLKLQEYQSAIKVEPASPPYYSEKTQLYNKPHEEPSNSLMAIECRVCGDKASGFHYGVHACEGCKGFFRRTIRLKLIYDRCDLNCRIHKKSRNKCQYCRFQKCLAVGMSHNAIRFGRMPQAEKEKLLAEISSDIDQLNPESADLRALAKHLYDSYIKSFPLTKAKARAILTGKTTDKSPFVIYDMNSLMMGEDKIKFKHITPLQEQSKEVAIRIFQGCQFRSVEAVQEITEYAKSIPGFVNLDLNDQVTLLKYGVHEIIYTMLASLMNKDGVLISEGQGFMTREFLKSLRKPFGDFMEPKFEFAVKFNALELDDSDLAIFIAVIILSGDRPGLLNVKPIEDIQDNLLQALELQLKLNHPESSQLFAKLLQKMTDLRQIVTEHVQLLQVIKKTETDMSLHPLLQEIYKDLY
Chain of Peroxisome proliferator-activated receptor gamma/Nuclear receptor coactivator 3 (Q9Y6Q9 whole entry, further chain): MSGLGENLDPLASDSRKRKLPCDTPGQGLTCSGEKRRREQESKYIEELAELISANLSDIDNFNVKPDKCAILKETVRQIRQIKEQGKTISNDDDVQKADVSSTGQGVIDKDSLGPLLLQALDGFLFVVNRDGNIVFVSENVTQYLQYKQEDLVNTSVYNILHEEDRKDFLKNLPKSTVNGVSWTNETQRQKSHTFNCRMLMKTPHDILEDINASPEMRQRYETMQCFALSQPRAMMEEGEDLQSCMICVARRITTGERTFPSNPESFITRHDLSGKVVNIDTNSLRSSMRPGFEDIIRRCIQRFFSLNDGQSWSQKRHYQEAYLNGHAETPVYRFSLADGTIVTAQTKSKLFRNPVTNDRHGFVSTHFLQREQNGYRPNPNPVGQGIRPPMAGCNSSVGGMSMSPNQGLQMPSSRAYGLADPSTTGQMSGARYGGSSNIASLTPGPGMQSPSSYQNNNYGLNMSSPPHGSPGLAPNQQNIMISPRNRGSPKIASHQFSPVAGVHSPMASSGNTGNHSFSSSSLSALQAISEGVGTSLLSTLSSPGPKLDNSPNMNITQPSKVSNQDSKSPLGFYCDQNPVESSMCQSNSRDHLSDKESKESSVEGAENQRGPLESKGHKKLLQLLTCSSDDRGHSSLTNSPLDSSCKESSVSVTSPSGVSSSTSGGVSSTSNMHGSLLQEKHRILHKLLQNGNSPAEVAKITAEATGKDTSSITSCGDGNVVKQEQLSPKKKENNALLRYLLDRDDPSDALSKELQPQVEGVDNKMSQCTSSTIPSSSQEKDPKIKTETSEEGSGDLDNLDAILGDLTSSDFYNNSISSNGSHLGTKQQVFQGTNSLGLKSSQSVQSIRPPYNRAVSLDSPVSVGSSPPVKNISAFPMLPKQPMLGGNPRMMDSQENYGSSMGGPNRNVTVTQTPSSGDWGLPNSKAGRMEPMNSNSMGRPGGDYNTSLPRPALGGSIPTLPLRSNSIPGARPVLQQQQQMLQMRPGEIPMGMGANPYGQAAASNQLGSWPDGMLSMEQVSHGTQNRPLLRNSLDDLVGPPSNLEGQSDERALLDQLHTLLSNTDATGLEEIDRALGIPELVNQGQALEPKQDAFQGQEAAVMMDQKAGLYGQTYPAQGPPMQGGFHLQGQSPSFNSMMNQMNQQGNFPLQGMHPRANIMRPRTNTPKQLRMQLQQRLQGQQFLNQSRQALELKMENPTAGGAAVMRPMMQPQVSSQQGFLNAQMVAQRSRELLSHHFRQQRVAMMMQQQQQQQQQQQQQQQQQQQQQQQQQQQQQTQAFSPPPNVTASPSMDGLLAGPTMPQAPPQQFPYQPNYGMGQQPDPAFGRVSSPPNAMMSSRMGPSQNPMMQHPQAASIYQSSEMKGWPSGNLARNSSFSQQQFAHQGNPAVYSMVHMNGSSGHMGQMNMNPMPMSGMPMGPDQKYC

[3] = target: Peroxisome proliferator-activated receptor gamma/Nuclear receptor coactivator 2 (Homo sapiens, UniProt P37231); test: TR-FRET dose response biochemical High Throughput Screening assay for agonists of the steroid receptor coactivator 2 (SRC-2) recruitment by the peroxisome proliferator-activated receptor gamma (PPAR gamma): non-selective agonists. [Related pubchem assays: 1297, 1032 ]; type: functional
Chain of Peroxisome proliferator-activated receptor gamma/Nuclear receptor coactivator 2 (P37231 whole entry): as the sequence (P37231 whole entry) above
Chain of Peroxisome proliferator-activated receptor gamma/Nuclear receptor coactivator 2 (Q15596 whole entry, further chain): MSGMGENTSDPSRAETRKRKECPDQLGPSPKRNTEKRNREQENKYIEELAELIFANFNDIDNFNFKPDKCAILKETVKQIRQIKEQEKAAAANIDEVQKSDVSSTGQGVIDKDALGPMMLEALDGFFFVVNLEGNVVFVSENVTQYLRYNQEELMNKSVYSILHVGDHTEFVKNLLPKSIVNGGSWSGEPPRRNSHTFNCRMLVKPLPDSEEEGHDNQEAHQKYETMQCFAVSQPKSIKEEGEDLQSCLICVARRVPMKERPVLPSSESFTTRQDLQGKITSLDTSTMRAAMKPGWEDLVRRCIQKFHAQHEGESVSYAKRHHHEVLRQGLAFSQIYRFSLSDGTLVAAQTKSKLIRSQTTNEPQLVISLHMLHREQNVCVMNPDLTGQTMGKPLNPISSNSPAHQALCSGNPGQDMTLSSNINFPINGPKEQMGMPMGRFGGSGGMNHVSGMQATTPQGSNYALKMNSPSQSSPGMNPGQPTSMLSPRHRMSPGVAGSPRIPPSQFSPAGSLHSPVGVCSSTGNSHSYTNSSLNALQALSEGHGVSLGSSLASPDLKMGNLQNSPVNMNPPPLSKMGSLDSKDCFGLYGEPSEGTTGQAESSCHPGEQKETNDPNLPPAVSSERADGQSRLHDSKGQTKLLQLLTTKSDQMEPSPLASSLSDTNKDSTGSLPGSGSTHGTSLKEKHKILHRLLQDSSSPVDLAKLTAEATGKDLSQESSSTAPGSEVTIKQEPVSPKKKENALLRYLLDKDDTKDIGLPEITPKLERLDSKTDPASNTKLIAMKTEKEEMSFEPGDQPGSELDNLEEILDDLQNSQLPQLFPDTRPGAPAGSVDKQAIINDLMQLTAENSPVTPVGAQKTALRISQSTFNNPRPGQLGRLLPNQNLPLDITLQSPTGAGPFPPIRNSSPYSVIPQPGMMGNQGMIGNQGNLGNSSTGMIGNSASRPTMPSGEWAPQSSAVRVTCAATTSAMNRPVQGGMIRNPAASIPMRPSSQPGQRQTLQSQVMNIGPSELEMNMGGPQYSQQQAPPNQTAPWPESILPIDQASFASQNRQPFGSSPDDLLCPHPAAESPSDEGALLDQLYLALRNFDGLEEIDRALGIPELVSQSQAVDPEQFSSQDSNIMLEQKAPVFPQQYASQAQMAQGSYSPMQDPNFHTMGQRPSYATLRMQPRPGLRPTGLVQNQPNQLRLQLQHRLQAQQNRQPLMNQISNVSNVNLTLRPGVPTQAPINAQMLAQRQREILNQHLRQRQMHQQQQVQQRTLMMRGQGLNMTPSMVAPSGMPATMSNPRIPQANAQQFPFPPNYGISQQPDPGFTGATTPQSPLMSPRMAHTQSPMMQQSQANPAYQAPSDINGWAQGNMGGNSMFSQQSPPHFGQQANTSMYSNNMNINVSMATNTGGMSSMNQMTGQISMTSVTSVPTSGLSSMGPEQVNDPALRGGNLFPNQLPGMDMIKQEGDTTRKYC

[4] = target: DNA dC->dU-editing enzyme APOBEC-3A (Homo sapiens, UniProt P31941); test: Dose Response confirmation of small molecule APOBEC3A DNA Deaminase Inhibitors via a fluorescence-based single-stranded DNA deaminase assay. [Related pubchem assays (depositor defined):AID493011, AID493024]; type: functional
Chain of DNA dC->dU-editing enzyme APOBEC-3A (P31941 whole entry): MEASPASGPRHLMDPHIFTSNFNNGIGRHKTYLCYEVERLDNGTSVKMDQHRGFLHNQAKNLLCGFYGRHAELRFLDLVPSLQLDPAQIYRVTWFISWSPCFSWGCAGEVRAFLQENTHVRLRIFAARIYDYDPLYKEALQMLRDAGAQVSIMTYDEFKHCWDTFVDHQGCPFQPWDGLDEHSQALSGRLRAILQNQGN

[5] = target: DNA dC->dU-editing enzyme APOBEC-3G (Homo sapiens, UniProt Q9HC16); type: functional;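 also: Dose-response counterscreen measuring inhibition of APOBEC3G DNA deaminase activity, run while confirming APOBEC3A inhibitors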
Chain of DNA dC->dU-editing enzyme APOBEC-3G (Q9HC16 whole entry): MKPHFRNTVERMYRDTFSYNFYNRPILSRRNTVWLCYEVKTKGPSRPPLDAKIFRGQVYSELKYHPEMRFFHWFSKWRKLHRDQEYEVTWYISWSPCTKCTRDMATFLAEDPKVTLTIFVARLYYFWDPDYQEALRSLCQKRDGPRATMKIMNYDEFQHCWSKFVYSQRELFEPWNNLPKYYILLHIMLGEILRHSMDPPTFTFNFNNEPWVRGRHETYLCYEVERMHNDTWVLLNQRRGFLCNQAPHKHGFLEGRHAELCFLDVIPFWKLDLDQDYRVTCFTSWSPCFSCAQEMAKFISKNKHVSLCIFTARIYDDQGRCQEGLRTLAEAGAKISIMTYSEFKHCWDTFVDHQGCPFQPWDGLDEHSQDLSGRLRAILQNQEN

[6] = Luminescence Cell-Based Dose Confirmation HTS to Identify Activators of 5'UTR Stem-Loop Driven Alpha-Synuclein mRNA Translation in H4 Neuroglioblastoma Cells. [Related pubchem assays: 1829 (Project Summary), 1814 (Primary HTS)]; type: functional
[7] = Luminescence Cell-Based Dose Response HTS to Identify Activators of Luciferase Translation or Activity in H4 […] Cells. [Related pubchem assays: 1829 (Project Summary), 1814 (Primary HTS)]; type: functional
[8] = tested on: H4; test: Luminescence Cell-Based Dose Response HTS to Identify Activators of 5'UTR Stem-Loop Driven Prion Protein mRNA Translation in H4 Neuroglioblastoma Cells. [Related pubchem assays: 1829 (Project Summary), 1814 (Primary HTS)]; type: functional; conditions: Homo sapiens
[9] = Trypanosoma cruzi growth suppression in host cells – NIH3T3 host cells, beta-gal luminescence, confirmation (AID 2044); type: functional, cell-based;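 also: intracellular parasites grown in NIH/3T3 mouse fibroblasts as host cells; luminescent beta-galactosidase reporter signal from transgenic T. cruzi replicating inside host cells; inhibitors lower the luminescence signal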
[10] = viability of PTEN-deleted HCT116 cells – cell-based, HCT116 PTEN knockout, dose response (AID 1047); type: functional;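 also: HCT116 colon tumor cells with PTEN knocked out; cells exposed to compound for 60 hours before readout; potency for loss of cell viability measured by luminescence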
[11] = NIH3T3 cell viability loss – ATP luminescence, mouse fibroblasts, counter-screen, dose response (AID 2010); type: functional, cell-based;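 also: cells exposed to compound for about 90 hours before reading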
[12] = viability of HCT116 lacking mutant beta-catenin – cell-based, human colon tumor, dose response (AID 1045); type: functional;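 also: HCT116 colon tumor cells with beta catenin knocked out; cells exposed to compound for 60 hours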
[13] = THP-1 cell cytotoxicity, dose response, cytotoxicity control for non-replicating M. tuberculosis project (AID 489025); type: functional
[14] = HepG2 cell cytotoxicity, dose response, cytotoxicity control for non-replicating M. tuberculosis project (AID 489018); type: functional; conditions: Mycobacterium tuberculosis
[15] = Vero E6 cell cytotoxicity, dose response, cytotoxicity control for non-replicating M. tuberculosis project, secondary assay (AID 492998); type: functional, VeroE6; conditions: Vero C1008
[16] = cells; type: functional
[17] = tested on: INS1; test: INS-1E survival protection against cytokine death – cell-based, luminescence, retest, dose response (AID 449756); type: functional; conditions: Rattus norvegicus;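 also: cell death triggered by IL-1 beta plus TNF-alpha plus IFN-gamma mixture; protective hits raise ATP signal compared with cytokine alone wells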
[18] = reduction of Shn3 3'UTR-driven luciferase in osteoblasts – cell-based, Clone20 osteoblasts, firefly luciferase, cherry-picked, dose response (AID 624132); type: functional;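 also: firefly luciferase luminescence from reporter carrying the Shn3 3'UTR in osteoblasts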
[19] = loss of viability in HepG2 cells – cell-based, CellTiter-Glo, cherry-picked, cytotoxicity control for Shn3 inhibitor project, dose response (AID 624134); type: functional
[20] = non-specific 3'UTR reporter inhibition in Clone20-Shn3RL – cell-based, Renilla luciferase, cherry-picked, counter-screen for Shn3 inhibitor project, dose response (AID 624133); type: functional
[21] = target: T1, Coagulation factor XII (Homo sapiens, UniProt P00748); type: functional;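 also: activated factor XIIa alpha cleaving a fluorogenic AMC peptide substrate; inhibitor potency from loss of enzyme activity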
T1 sequence (P00748 whole entry): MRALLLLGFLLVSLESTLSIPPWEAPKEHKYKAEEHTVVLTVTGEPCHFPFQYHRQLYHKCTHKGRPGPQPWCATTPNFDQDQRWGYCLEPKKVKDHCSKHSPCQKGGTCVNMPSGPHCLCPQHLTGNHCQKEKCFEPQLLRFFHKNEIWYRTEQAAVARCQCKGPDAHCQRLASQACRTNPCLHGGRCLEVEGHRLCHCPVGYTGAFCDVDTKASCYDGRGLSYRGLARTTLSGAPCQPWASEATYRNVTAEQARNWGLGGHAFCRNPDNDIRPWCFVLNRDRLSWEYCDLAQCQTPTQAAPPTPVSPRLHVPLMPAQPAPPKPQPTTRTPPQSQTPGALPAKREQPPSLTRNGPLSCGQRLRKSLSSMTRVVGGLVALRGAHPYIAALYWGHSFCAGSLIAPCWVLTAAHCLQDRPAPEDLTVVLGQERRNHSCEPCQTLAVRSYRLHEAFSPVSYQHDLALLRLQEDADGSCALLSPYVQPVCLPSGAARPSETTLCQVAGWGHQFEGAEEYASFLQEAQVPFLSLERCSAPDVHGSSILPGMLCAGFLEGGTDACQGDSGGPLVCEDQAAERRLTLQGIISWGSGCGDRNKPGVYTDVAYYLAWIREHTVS

[22] = target: Glyceraldehyde-3-phosphate dehydrogenase (Homo sapiens, UniProt P04406)
Chain of Glyceraldehyde-3-phosphate dehydrogenase (P04406 whole entry): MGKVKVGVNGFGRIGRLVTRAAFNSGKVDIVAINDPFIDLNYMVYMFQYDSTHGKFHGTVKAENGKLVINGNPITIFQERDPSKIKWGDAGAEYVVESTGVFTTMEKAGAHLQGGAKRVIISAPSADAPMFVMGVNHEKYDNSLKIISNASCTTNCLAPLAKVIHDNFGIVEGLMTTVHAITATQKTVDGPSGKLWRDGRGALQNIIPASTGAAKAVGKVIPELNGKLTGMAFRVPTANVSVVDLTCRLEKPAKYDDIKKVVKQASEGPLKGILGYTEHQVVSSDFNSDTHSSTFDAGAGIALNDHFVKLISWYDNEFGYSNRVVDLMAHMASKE

[23] = target: T2, Alkaline phosphatase, tissue-nonspecific isozyme (Homo sapiens, UniProt P05186); test: potency against alkaline phosphatase TNAP – biochemical, luminescent, dose response, SAR follow-up (AID 1056)
T2 sequence (P05186 whole entry): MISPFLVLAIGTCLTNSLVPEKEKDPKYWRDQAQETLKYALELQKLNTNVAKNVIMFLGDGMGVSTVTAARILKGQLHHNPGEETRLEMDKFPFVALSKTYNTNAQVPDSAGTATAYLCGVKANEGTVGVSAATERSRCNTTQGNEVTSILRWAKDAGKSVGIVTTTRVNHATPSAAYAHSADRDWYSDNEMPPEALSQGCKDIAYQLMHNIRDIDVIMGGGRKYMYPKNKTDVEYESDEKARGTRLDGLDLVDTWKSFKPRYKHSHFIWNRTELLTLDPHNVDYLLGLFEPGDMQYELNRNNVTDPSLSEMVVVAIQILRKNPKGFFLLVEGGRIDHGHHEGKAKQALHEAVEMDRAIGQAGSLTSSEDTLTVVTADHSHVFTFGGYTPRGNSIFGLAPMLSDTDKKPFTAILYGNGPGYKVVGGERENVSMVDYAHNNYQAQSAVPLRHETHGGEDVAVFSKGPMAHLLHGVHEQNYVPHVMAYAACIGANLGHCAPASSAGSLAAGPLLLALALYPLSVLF

[24] = Luminescence Cell-Based Dose Retest to Confirm Inhibitors of Cancer Stem Cells. [Related pubchem assays (depositor defined):AID2717, AID2721]; type: functional; conditions: Homo sapiens
[25] = target: T3, Ubiquitin-conjugating enzyme E2 N (Homo sapiens, UniProt P61088); type: functional;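 also: Dose-response confirmation in a TR-FRET assay detecting UBC13-driven polyubiquitin chain formation, inhibition measured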
T3 sequence (P61088 whole entry): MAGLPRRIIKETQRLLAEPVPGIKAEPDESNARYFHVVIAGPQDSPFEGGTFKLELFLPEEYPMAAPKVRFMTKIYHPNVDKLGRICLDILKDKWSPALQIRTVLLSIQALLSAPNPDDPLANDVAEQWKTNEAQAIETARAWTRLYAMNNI

[26] = target: Eukaryotic translation initiation factor 4E (Mus musculus, UniProt P63073); test: blockers of eIF4G binding by eIF4E – biochemical, TR-FRET, dose response (AID 855); type: functional;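 also: potency for disrupting eIF4E binding to eIF4GI seen as loss of FRET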
Chain of Eukaryotic translation initiation factor 4E (P63073 whole entry): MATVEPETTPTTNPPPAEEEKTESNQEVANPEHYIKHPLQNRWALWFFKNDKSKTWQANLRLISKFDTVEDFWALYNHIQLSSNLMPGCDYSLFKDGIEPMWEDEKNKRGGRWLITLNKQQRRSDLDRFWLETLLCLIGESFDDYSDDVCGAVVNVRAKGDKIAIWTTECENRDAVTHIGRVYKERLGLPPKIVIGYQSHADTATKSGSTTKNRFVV

In the case of `COc1cccc(OC)c1C(=O)Nc1nnc(-c2cccs2)s1`, the EC50 [1] was 17.7 µM (inactive), the EC50 [2] was > 79.4 µM (not active) and the EC50 [3] was 22 µM (not active).

In the case of `CCN1CCN(S(=O)(=O)c2ccc(Cl)c(C(=O)N(C)C(c3ccccc3)c3ccccc3)c2)CC1`, the IC50 [4] was 4.6 µM (active) and the IC50 [5] was 5.67 µM (active).

In the case of `CN(C)CC(C(=O)c1ccccc1)c1ccccc1` (stereo not drawn), the EC50 [6] was > 120 µM (not active), the EC50 [7] was > 120 µM (not active) and the EC50 [8] was > 120 µM (not active). For the same compound, the EC50 [9] was 3.6 µM (active), the EC50 [10] was 5.35 µM (active) and the EC50 [11] was > 30 µM (not active). The EC50 [12] was 2.99 µM (active), the CC50 [13] was 7.72 µM (active) and the CC50 [14] was 12.9 µM (active). The CC50 [15] was 10.6 µM (active), the IC50 [16] was 4.64 µM (active) and the AC50 [17] was 7.43 µM (active). The AC50 [18] was 2.8 µM (active), the AC50 [19] was 19.2 µM (active) and the AC50 [20] was 8.54 µM (active).

For `Cc1cc(NC(=O)CCN2C(=O)/C(=C/c3ccccc3F)SC2=S)no1`, the IC50 [21] was > 50 µM (inactive).

In the case of `c1cncc(-c2cnc3ccccc3c2)c1`, the IC50 [22] was > 100 µM (not active) and the IC50 [23] was > 100 µM (inactive).

For `COc1ccc2nc(C)cc(N/N=C/c3ccccc3)c2c1`, the CC50 [13] was 10.9 µM (active), the AC50 [24] was 5.6 µM (active) and the CC50 [14] was 9.19 µM (active). For the same compound, the IC50 [25] was > 20 µM (inactive), the CC50 [15] was 6.15 µM (active) and the IC50 [16] was 0.52 µM (active). The AC50 [17] was 2.68 µM (active).

In the case of `Cc1ccccc1N=Nc1c(C)[nH]n(-c2ccccc2)c1=O`, the IC50 [26] was 50 µM (inactive).

For `Cn1cnc(-c2cccnc2)c1`, the IC50 [22] was > 100 µM (not active) and the IC50 [23] was > 100 µM (inactive).
